CN1CCOC(c2ccccc2)c2ccccc2C1.Cl (stereo not drawn)
solubility (mole fraction)
Conditions	in acetone	in ethanol	in isobutanol	in isopropanol	in methanol	in n-butanol	in n-propanol	in water
273.15 K	7.2e-05	0.00136	0.000415	0.000136	0.00515	0.000205	0.000291	0.000951
278.15 K	8.7e-05	0.00163	0.000524	0.000167	0.00566	0.000245	0.000328	0.00106
283.15 K	0.000107	0.00198	0.000635	0.000206	0.00632	0.000287	0.000387	0.00124
288.15 K	0.000128	0.00247	0.000797	0.000251	0.00692	0.000369	0.000495	0.00144
293.15 K	0.000151	0.0029	0.000955	0.00032	0.00764	0.000463	0.000652	0.00167
298.15 K	0.000182	0.00337	0.00116	0.000407	0.00856	0.000605	0.000836	0.00199
303.15 K	0.000215	0.00402	0.00144	0.000494	0.00951	0.000776	0.00106	0.00234
308.15 K	0.000265	0.00473	0.00175	0.000608	0.0105	0.000986	0.00134	0.00273
313.15 K	0.000312	0.00559	0.00214	0.000752	0.0115	0.00125	0.0017	0.00317
318.15 K	0.000373	0.00654	0.0026	0.000935	0.0128	0.00159	0.00213	0.00369
323.15 K	0.000445	0.00795	0.00321	0.00114	0.0143	0.00198	0.00267	0.00426

Source: BigSolDB 2.1
